Reference: patent US9854822B2, “Process for increasing the yield of Lactococcus lactis subsp, lactis and/or Lactococcus lactis subsp. cremoris bacteria cultures during aerobic fermentation” (CHR. HANSEN A/S, priority 2005, dated 2018)

Legend:
[1] = system: L. lactis subsp. lactis CHCC2862; test: Proteomics (2D protein gels) for detection of exogenous purines in the medium; type: cell-based, Lactococcus lactis subsp. lactis; conditions: 0.2% inosine, SA medium with 1% glucose
Description: To set up a specific method for detection of the presence/absence of exogenous purines in the medium we inoculated L. lactis subsp. lactis CHCC2862 into defined SA medium with 1% glucose. This medium is devoid of nucleo compounds (Jensen & Hammer 1993). Cultures were set up at 30° C. with and without 0.2% inosine and incubated overnight. Exponentially growing cells were then inoculated into fresh medium at an OD600 of around 0.1. At OD 0.8 (exponential growth) and in stationary phase cells were harvested and 2D protein gels were produced.
In general around 3-400 protein spots were detectable on the gels with the pH range 4-7. For OD 0.8 there were less than 10 spots that were present from the culture without inosine, but absent (or very weak) from the culture with inosine. […] Four of the strongest spots present only on the gel produced from the culture without purines were subjected to in-gel digestion and mass spectrometry identification. The proteins were identified as: purH (bifunctional purine biosynthesis protein), purM (phosphoribosylaminoimidazole synthase), yphF (phosphoribosylformylglycinamidine synthase PurS), and fhs (formyltetrahydrofolate synthetase). […]
Identification of proteins. The identity of proteins in chosen spots was determined by in-gel digestion and analysis of peptide profile and amino acid content using mass spectrometry. […]

[2] = system: R 604 culture (Lactococcus lactis); test: Yield of Lactococcus lactis fermentation at standard anaerobic high-OD conditions; type: cell-based
Description: To illustrate the effect of adding extra purine containing compounds to an already enriched and optimized media two different types of industrial scale fermentation were compared, one with and one without 0.3% w/w inosine added.
The present experiment was performed using the commercially available R 604 culture, which is available from Chr. Hansen A/S, Hoersholm, Denmark (catalogue no. 200113).
The cultures were cultured in a medium having the following composition: Casein hydrolysate (Oxoid, Basingstoke, UK, Product Code L41), 30 g/l; Primatone RL (Quest, Naarden, The Netherlands, Product Code 5X59051), 30 g/l; soya peptone (Oxoid, Basingstoke, UK, Product Code L44), 30 g/l; yeast extract (Oxoid, Basingstoke, UK, Product Code L21), 15 g/l; MgSO4, 1.5 g/l; Na-ascorbate, 3 g/l; and lactose 50 g/l.
The medium was sterilized by UHT-treatment (143° C. for 8 sec.).
The fermentation was performed in a 550 L industrial fermentation tank without aeration at 30° C. using 1% (w/w) of the culture mentioned above as inoculum. At high OD conditions the fermentation is essentially anaerobic. The cultures were allowed to acidify to pH 6.0. The pH was subsequently maintained at 6.0 by controlled addition of 13.4 N NH4OH.
When no further base consumption was detected, the respective culture was cooled down to about 10° C.
Following cooling, the bacteria in culture media were concentrated 6-18 times by centrifugation and subsequently frozen as pellets in liquid nitrogen at one atmosphere of pressure to produce a so-called frozen Direct Vat Set culture (F-DVS). The F-DVS pellets were stored at −50° C. until further analysis
The yields of the fermentations were specified in two different ways: • 1) by the obtained biomass measured as the Optical Density at 600 nm (OD600), or • 2) by kg of F-DVS culture pr. 100 L fermentation medium wherein the F-DVS culture have an “acidification activity” of 4.8-5.1 according to the Pearce test described in Example 2: Analytical Procedure QAm-043.

[3] = system: Streptococcus thermophilus culture CHQ-18; test: Yield of Streptococcus thermophilus fermentation at standard anaerobic high-OD conditions; type: cell-based; conditions: 0.2% w/w added, 3 L tank, 40° C., pH 6.0
Description: 0.2% w/w inosine is approximately 7 mM inosine.
This experiment was performed to investigate the effect of adding extra purine containing compounds to an already enriched and optimized media to be used for anaerobic fermentation at high OD-conditions.
The present experiment was performed using the commercially available Streptococcus thermophilus culture CHQ-18, which is available from Chr. Hansen A/S, Hoersholm, Denmark.
The cultures were cultured in a rich medium based on complex medium components, BioSpringer yeast extract 207, Arla skim milk powder (Milex 240), and lactose.
The fermentation was performed in a 3 L agitated fermentation tank at 40° C. using 0.1% (w/w) of the culture mentioned above as inoculum. The pH was maintained at 6.0 by addition of 13.4 N NH4OH. Anaerobic conditions were ensured by flushing with nitrogen in head space (1.5 l/min). Agitation was 300 rpm.
The yields of the fermentations were specified by the obtained biomass measured as the Optical Density at 600 nm (OD600) of unconcentrated samples sampled during the fermentation.

[4] = 0.3% w/w inosine, 550 L tank without aeration, 30° C., pH 6.0

OC[C@H]1O[C@@H](n2cnc3c(O)ncnc32)[C@H](O)[C@@H]1O [inosine]
Protein spots present from the culture without inosine, but absent (or very weak) from the culture with inosine ([1]; 30° C., OD 0.8 (exponential growth), gels pH 4-7): less than 10 spots
Absence/presence pattern of purine de novo synthesis protein spots ([1]; cells in stationary phase): a similar absence/presence pattern was obtained
Effect of enhancing agent on yield ([2]; 0.3% w/w inosine added to the anaerobic culture medium before the start of the fermentation): did not result in increased yields
Yield according to Pearce [2, 4]: 4.98
Yield as OD600 [2, 4]: 25.2
Effect of enhancing agent on yield (biomass as OD600, FIG. 1) [3]: did not result in increased yields
